Positions of bridges follow the written chain, without caps; N, C: chain ends. Non-standard residues stand in square brackets, D forms with d. Residues, ends and D or L forms follow the SMILES beside them.
Legend:
GBA2 = molecular target: T1, GBA2 (Homo sapiens, UniProt Q9HCG7); assay: GBA2 inhibition in overexpressing HEK293T lysates; assay type: biochemical; settings: McIlvaine pH 5.8, 4-MU substrate
T1 construct: expressed in transfected cells
T1 sequence (Q9HCG7 1-927): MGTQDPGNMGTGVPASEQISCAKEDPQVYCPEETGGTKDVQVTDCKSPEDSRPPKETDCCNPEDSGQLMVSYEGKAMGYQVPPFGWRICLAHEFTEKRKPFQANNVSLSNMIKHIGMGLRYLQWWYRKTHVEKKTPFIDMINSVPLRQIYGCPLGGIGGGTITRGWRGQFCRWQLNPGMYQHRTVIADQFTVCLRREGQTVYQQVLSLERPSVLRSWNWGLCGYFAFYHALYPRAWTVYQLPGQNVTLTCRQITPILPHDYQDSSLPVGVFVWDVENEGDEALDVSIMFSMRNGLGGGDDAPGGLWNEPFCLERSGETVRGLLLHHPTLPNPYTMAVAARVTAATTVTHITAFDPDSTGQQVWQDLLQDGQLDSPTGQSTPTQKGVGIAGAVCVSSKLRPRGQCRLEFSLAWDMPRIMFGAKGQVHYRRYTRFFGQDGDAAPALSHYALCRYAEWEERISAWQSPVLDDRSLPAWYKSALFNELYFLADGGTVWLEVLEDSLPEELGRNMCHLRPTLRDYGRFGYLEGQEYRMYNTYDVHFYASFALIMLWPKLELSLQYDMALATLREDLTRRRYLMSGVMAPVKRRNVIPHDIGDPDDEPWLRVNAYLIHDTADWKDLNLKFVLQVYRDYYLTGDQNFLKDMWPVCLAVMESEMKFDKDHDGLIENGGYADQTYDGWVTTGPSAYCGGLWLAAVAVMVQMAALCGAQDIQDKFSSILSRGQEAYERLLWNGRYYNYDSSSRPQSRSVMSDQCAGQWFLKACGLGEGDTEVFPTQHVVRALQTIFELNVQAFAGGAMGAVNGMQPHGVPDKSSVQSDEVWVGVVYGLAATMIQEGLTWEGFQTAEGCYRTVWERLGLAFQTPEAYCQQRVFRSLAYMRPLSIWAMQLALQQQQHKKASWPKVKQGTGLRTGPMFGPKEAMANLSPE
Method: (§1) Based on the pull-down validation, a set of eight cyclic peptides (L1, L2, L4, L6, D1, D8, D12 and D13) were identified, synthesized, and evaluated for their inhibitory potency against recombinant human GBA1 (rhGBA1, Cerezyme®) and their selectivity over human β-glucosidases GBA2 and GBA3. Half-maximum inhibitory concentration (IC50) values for β-glucosidases were determined in vitro by measuring hydrolysis of 4-methylumbelliferyl-β-D-glucopyranoside (4-MU-β-D-Glu) fluorogenic substrate. […]
2.5. In vitro IC50 and Ki measurements […]
nM) at 37 °C for 30 min. Following this, 100 µL of 4MU substrate was added and the samples were again incubated at 37 °C for 30 min. The reaction was quenched using excess 1 M NaOH-glycine (200 µL, pH 10.3) and 4MU fluorescence was measured using a LS55 fluorimeter (λEx 366 nm and λEm 445 […]
GBA2 and GBA3 IC50 values were determined following a similar protocol,5 using stable GBA2 or GBA3 HEK293T over-expression cell lysates and McIlvaine buffer pH 5.8 with 0.1 % BSA (w/v) and 100 mM HEPES with 0.1 % BSA, respectively. Covalent inhibitor of endogenous GBA1 (1 µM Bodipy green-cyclophellitol β-epoxide activity based probe) was added for both GBA2 and GBA3 assays, and GBA2 inhibitor N-(5-adamantane-1-yl-methoxy-pentyl)-deoxynojirimycin, AMP-DNM at 1 nM) was added for GBA3 assay. Cell lysates were pre-incubated with the aforementioned GBA1/GBA2 inhibitors for 30 min at 37 °C (12.5 µL) and subsequently incubated with the tested ligands at a range of concentrations for 30 min at 37 °C (12.5 µL), after which 100 µL 4MU-β-D-glucopyranoside was added for a final incubation of 30 min at 37 °C, quenched with 200 µL 1 M NaOH-glycine (pH 10.3) and fluorescence was measured. IC50 values were calculated using GraphPad Prism version 8.

[1] = molecular target: T2, recombinant human GBA1 (rhGBA1, Cerezyme) (Homo sapiens, UniProt P04062, R534H); assay: In vitro rhGBA1 inhibition, 4-MU-β-D-glucopyranoside hydrolysis; assay type: biochemical; settings: Cerezyme 14 nM, 3.7 mM 4-MU-β-D-glucopyranoside, McIlvaine pH 5.2, 30 min pre-incubation 37 °C + 30 min, mean ± SD from 3 technical triplicates
T2 construct: purchased Cerezyme
T2 sequence (P04062 40-536 R534H): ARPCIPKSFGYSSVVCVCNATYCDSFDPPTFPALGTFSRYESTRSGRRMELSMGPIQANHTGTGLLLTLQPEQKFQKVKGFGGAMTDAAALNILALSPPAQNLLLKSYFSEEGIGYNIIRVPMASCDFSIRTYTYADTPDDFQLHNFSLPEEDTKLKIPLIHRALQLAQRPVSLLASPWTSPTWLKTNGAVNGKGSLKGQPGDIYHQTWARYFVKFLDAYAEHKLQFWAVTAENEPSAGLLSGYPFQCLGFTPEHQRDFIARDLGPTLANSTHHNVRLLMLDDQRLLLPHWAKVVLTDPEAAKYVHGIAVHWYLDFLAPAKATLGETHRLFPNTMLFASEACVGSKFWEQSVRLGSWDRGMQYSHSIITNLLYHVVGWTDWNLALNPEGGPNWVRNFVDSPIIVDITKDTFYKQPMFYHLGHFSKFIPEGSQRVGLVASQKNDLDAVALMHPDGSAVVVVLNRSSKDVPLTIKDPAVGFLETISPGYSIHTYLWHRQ
Method: as §1
Pure product fractions were pooled, lyophilized, and dissolved again in DMSO before concentration was determined by A280 using a sample diluted in phosphate buffer at pH 7.4 and extinction coefficients determined from the sequence using the Expasy ProtParam online tool (https://web.expasy.org/protparam/). […]
2.5. In vitro IC50 and Ki measurements
For GBA1, IC50 values were determined using the recombinant human GBA1 (rhGBA1, Cerezyme) following described procedures.4 Enzyme activity was measured using 3.7 mM 4-methylumbeliferone (4MU)-β-D-glucopyranoside in 150 mM McIlvaine buffer pH 5.2 supplemented with 0.1% bovine serum albumin (BSA) (w/v), 0.1% Triton X-100 (v/v), and 0.2% sodium taurocholate (w/v). Varying concentrations of inhibitor (12.5 µL) were incubated with 12.5 µL of enzyme (final concentration 14 nM) at 37 °C for 30 min. Following this, 100 µL of 4MU substrate was added and the samples were again incubated at 37 °C for 30 min. The reaction was quenched using excess 1 M NaOH-glycine (200 µL, pH 10.3) and 4MU fluorescence was measured using a LS55 fluorimeter (λEx 366 nm and λEm 445 […]
30 min at 37 °C (12.5 µL) and subsequently incubated with the tested ligands at a range of concentrations for 30 min at 37 °C (12.5 µL), after which 100 µL 4MU-β-D-glucopyranoside was added for a final incubation of 30 min at 37 °C, quenched with 200 µL 1 M NaOH-glycine (pH 10.3) and fluorescence was measured. IC50 values were calculated using GraphPad Prism version 8.

RAW 264.7 cells = assay: In situ competitive activity-based protein profiling (cABPP); assay type: cell-based; settings: 0-100 μM for 4 hours, then JJB75 10 nM for 2 hours, fluorescence SDS-gel scanning
Method: We further investigated GBA1 inhibition in cells. Human dermal fibroblasts were initially incubated with peptide concentrations ranging from 0.1 μM (from 0.001 μM for L4, D1 and D12) to 100 μM of each cyclic peptide for 3 hours. […] To further confirm the inability of these peptides to cross the cell membrane, we conducted in situ competitive activity-based protein profiling (cABPP) experiments using RAW 264.7 monocyte/macrophage-like cells. […]
Figure S6. […] Cells were washed, lysed and analysed by fluorescent readout. […]
Human fibroblasts (Cambrex-Lonza CC-2511) were cultured in complete DMEM/F12 growth medium supplemented with 10% (v/v) foetal calf serum and 0.1 % (w/v) penicillin/streptomycin at 37 °C and 5% CO2. […] GlcCer and GlcSph lipids were quantified as described below. In parallel, enzyme activity in cell lysates was measured using 3.7 mM 4-methylumbeliferone (4MU)-β-D-glucopyranoside in 150 mM McIlvaine buffer pH 5.2 supplemented with 0.1% bovine serum albumin (BSA) (w/v), 0.1% Triton X-100 (v/v), and 0.2% sodium taurocholate (w/v) as described above (see Table S1). […]
Cells were kept on ice and equal protein amounts were loaded per well on a 10% SDS-PAGE gel. Gels were scanned for fluorescence and then stained with Coomassie Brilliant Blue for loading control. […]
Levels of GlcCer and GlcSph were determined with a modified acidic Bligh & Dyer extraction (Figure 2 […]

IC50 (GBA2) | rhGBA1 IC50 [1] | IC50 ([1]; SD) | Structure (SMILES) | competition with ABP JJB75 (cell permeability) (RAW 264.7 cells)
> 100 µM | high micromolar range | 26.4 ± 3.31 µM | CC[C@H](C)[C@@H]1NC(=O)[C@H](CC(C)C)NC(=O)[C@H](Cc2ccc(O)cc2)NC(=O)[C@H](C)NC(=O)[C@H](CCC(N)=O)NC(=O)[C@H](CO)NC(=O)[C@H](CCCCN)NC(=O)[C@H]([C@@H](C)O)NC(=O)[C@H](Cc2c[nH]c3ccccc23)NC(=O)[C@H]([C@@H](C)O)NC(=O)[C@H]([C@@H](C)CC)NC(=O)[C@H](C(C)C)NC(=O)[C@H](CCC(N)=O)NC(=O)[C@@H](Cc2ccc(O)cc2)NC(=O)CSC[C@@H](C(N)=O)NC(=O)[C@H](CCC(N)=O)NC1=O [D13] ({CH2CO}-[dY]QVITWTKSQAYLIQC-NH2; thioether N-16) | 
 |  |  | CC1=CC(C)=[N+]2C1=C(CCCCc1cn(C[C@@H]3[C@@H](O)[C@H](O)[C@@H](O)[C@@H]4O[C@H]34)nn1)c1c(C)cc(C)n1[B-]2(F)F [MDW933] | did show competition

— publication PMC11808397, “Development of selective nanomolar cyclic peptide ligands as GBA1 enzyme stabilisers” (RSC Chemical Biology, 2025)
